The text below walks through data of patent US20040248953A1, “3-Arylsulfanyl and 3-heteroarylsulfanyl substituted benzo[b]thiophenes as therapeutic agents” (priority 2003, published 2004).

Broadly, the IC50 is the midpoint of a concentration-inhibition curve.

T1 sequence (P48736 whole entry, species assumed): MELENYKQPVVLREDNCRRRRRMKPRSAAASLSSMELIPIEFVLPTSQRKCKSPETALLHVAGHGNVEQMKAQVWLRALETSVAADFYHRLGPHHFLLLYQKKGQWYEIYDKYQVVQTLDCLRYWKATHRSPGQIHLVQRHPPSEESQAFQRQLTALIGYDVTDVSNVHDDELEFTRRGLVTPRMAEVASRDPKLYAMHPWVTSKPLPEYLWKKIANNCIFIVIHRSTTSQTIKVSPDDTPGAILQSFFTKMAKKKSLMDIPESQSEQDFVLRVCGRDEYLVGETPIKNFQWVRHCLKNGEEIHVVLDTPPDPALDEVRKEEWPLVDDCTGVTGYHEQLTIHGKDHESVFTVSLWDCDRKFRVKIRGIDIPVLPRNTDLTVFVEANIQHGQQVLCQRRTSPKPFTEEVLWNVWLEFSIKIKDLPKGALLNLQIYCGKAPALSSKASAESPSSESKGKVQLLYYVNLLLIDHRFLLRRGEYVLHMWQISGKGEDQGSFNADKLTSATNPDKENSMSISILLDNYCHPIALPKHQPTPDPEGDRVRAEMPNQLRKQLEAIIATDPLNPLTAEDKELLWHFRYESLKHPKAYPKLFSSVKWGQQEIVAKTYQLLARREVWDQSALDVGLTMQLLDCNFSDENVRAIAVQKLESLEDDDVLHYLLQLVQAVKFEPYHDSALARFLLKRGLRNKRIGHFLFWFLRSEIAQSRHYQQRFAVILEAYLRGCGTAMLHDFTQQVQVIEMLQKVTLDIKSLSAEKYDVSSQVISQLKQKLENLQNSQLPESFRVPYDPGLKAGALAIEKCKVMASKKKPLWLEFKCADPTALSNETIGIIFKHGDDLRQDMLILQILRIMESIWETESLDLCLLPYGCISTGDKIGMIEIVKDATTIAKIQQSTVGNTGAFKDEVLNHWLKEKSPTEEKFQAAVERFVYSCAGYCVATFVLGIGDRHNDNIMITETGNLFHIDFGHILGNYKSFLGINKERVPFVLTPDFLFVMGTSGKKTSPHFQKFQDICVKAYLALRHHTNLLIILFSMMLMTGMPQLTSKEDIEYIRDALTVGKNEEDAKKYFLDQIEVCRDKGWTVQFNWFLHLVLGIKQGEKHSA
T1 sequence (Q8WYR1 whole entry partner, species assumed): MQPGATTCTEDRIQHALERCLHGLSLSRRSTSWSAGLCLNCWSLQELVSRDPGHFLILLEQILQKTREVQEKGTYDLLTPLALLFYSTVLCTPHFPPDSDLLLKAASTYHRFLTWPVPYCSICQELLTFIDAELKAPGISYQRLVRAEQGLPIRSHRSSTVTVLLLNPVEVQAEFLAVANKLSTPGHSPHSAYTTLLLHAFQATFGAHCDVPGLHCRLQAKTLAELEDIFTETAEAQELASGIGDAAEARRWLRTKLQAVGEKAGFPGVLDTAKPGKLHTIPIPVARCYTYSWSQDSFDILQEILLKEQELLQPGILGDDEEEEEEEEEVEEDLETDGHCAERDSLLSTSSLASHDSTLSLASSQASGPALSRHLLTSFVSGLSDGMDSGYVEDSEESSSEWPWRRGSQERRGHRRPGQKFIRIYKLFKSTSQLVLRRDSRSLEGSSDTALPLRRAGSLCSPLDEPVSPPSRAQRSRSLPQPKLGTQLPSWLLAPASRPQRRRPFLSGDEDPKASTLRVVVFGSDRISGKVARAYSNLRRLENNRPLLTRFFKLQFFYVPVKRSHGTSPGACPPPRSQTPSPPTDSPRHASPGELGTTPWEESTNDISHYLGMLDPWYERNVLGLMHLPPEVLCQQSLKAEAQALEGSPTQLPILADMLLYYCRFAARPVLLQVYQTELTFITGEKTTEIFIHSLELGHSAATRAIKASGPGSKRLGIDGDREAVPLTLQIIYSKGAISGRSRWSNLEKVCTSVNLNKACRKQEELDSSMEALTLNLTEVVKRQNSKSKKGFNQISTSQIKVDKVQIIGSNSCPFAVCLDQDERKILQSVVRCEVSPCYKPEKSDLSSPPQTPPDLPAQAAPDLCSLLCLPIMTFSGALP

The test has as its target T1, PI3Kγ (Homo sapiens, UniProt P48736).
T1 construct: HA; made in house; host or cells: Spodoptera frugiperda (Sf9) cells, baculovirus coinfection
In words: PI3Kγ in vitro kinase assay (32P-ATP, PIP2 lipid micelles, filter plate). The format is biochemical. The following applies: purified recombinant p101/p110γ protein with G protein β1/γ2 subunits; 20 μM ATP; 25 μM PIP2; 20 minutes at room temperature. The method, then:
Spodtera frugiperda cells, grown in ESF921 media, were coinfected with baculovirus expressing a glu-tagged p101 and baculovirus expressing an HA-tagged p110γ, at a 3:1 ratio of p101 baculovirus to p110γ baculovirus. Sf9 cells were grown to 1×10^7 total cells/mL in 10 L bioreactors and harvested 48-72 hours post infection. Samples of infected cells were then tested for expression of p101/p110γ PI3 kinase by immunoprecipitation and Western Blot analysis methods (see below). To purify PI3Kγ, 4 volumes of room temperature hypotonic lysis buffer (1 mM MgCl2, 1 mM DTT, 5 mM EGTA, 1 mM Pefabloc, 0.5 μM aprotinin, 5 μM leupeptin, 2 μM pepstatin, 5 μM E64, pH 8) per gram of cell paste, was poured onto frozen cell pellets with stirring, then lysed in a nitrogen “bomb” at 400 psi (599HC […], Parr Instrument Co, Moline, Ill.). NaCl was added to 150 mM, and sodium cholate was added to 1% and mixed for another 45 minutes. The lysates were clarified by centrifugation for 25 minutes at 14,000 rpm. The lysates were then loaded over anti-glu-linked Protein-G Sepaharose beads (Covance Research Products, Richmond, Calif.) using 20 mL resin/50 g cell paste. The column was washed with 15 volumes of wash buffer (1 mM DTT, 0.2 mM EGTA, 1 mM Pefabloc, 0.5 μM aprotinin, 5 μM leupeptin, 2 μM pepstatin, 5 μM E64, 150 mM NaCl, 1% sodium cholate, pH 8). PI3Kγ was eluted with 6 column volumes of wash buffer that contain 100 μg/mL of a peptide that competes for binding of the glu tag. The column fractions with the eluted protein (determined by taking OD280 readings) were collected and dialyzed in 0.2 mM EGTA, 1 mM DTT, 1 mM Pefabloc, 5 μM leupeptin, 0.5% sodium cholate, 150 mM NaCl, and 50% glycerol, pH 8. The fractions were stored at -80° C. until further use. Spodtera frugiperda cells were coinfected with baculovirus expressing a glu-tagged G protein β1 and baculovirus expressing a […], at a 1:1 ratio of glu-tagged G protein β1 baculovirus to G protein β2 baculovirus. Sf9 cells are grown in 10 L bioreactors and harvested 48-72 hours post infection. Samples of infected cells were tested for G protein β1/β2 expression by Western Blot analysis, as described below. Cell lysates were homogenized and loaded onto a column of glu-tagged beads as in Biological Example 1 and competed off the column with a glu peptide and processed as described in Biological Example 1. The inhibitory properties of the compounds in Table 1 were assayed in an in vitro PI3K assay. In a 96-well polypropylene plate, each well was spotted with […] of 50 times the desired final concentration of compound in DMSO. Purified recombinant p101/p110γ protein (0.03 μg; 2.7 nM) and G protein β1/γ2 subunits (0.09 μg; 57.7 nM) for each reaction was combined in the assay buffer (30 mM HEPES, 100 mM NaCl, 1 mM EGTA, and 1 mM DTT). ATP and [γ-^32P-ATP] (0.09 μCi) were added to this mixture so that the final ATP concentration in the reaction was 20 μM. Lipid micelles were formed by sonicating phosphatidylinositol4,5-diphosphate (PIP2), phosphatidylethanolamine (PE), and Na-cholate in the assay buffer for 10 minutes, adding MgCl2 and incubating on ice for 20 minutes, for final concentrations of 25 μM PIP2, 300 μM PE, 0.02% Na-cholate, and 10 mM MgCl2 in the reaction. The reactions were started by adding equal volumes lipid and enzyme mixture in a total volume of 50 μL, allowed to run for 20 minutes at room temperature, and stopped with 100 μL 75 mM H3PO4. The lipid product was transferred to a glass fiber filter plate and washed with 75 mM H3PO4 several times. The presence of radioactive lipid product (PIP3) was measured by adding Wallac Optiphase mix to each well and counting in a Wallac 1450 Trilux plate reader (PerkinElmer Life Sciences Inc., Boston, Mass. 02118). The IC50 for each compound tested is reported in μM in Table 1: […]
“3-(2,3-dichloro-phenylsulfanyl)-5-methoxy-benzo[b]thiophene-2-carboxylic acid(1H-tetrazol-5-yl)-amide [Example 25]”: the IC50 is 3.45 µM.
The value for “3-(3-Chloro-phenylsulfanyl)-5-methoxy-6-methyl-benzo[b]thiophene-2-carboxylic acid(1H-tetrazol-5-yl)-amide [Example 33]” was 0.17 µM.
The same measure for “3-[2-(Acetyl-methyl-amino)-1-phenyl-propylsulfanyl]-6-methoxy-5-methyl-benzo[b]thiophene-2-carboxylic acid(1H-tetrazol-5-yl)-amide [Example 43]”: 0.215 µM; for “5,6-dimethoxy-3-phenethylsulfanyl-benzo[b]thiophene-2-carboxylic acid(1H-tetrazol-5-yl)-amide [Example 13]”: 0.522 µM; for “5-Ethoxy-3-phenethylsulfanyl-benzo[b]thiophene-2-carboxylic acid(1H-tetrazol-5-yl)-amide [Example 52]”: 2.85 µM.
The value for “5-methoxy-3-(2-methyl-furan-3-ylsulfanyl)-benzo[b]thiophene-2-carboxylic acid(1H-tetrazol-5-yl)-amide [Example 16]” was 2.21 µM; that for `COc1cc2sc(C(=O)Nc3nnn[nH]3)c(Sc3ccccc3)c2cc1OC` [Example 1, 5,6-Dimethoxy-3-phenylsulfanyl-benzo[b]thiophene-2-carboxylic acid(1H-tetrazol-5-yl)-amide] was 0.06 µM.
For `COc1cc2c(Sc3ccccc3)c(C(=O)Nc3nnn[nH]3)sc2cc1C` [Example 2, 5-Methoxy-6-methyl-3-phenylsulfanyl-benzo[b]thiophene-2-carboxylic acid(1H-tetrazol-5-yl)-amide], the IC50 was 0.177 µM.
Turning to `CCOc1ccc2sc(C(=O)Nc3nnn[nH]3)c(Sc3ccccc3)c2c1` [Example 3, 5-Ethoxy-3-phenylsulfanyl-benzo[b]thiophene-2-carboxylic acid (1H-tetrazol-5-yl)-amide], the IC50 worked out at 0.253 µM.
The value for `COc1ccc2sc(C(=O)Nc3nnn[nH]3)c(Sc3ccc(O)cc3)c2c1` [Example 4, 3-(4-hydroxy-phenylsulfanyl)-5-methoxy-benzo[b]thiophene-2-carboxylic acid(1H-tetrazol-5-yl)-amide] was 2.77 µM; that for `COc1cc2sc(C(=O)Nc3nnn[nH]3)c(Sc3ccccc3C)c2cc1OC` [Example 5, 5,6-dimethoxy-3-o-tolysulfanyl-benzo[b]thiophene-2-carboxylic acid(1H-tetrazol-5-yl)-amide] was 1.27 µM.
The value for `CCc1ccccc1Sc1c(C(=O)Nc2nnn[nH]2)sc2cc(OC)c(OC)cc12` [Example 6, 3-(2-ethyl-phenylsulfanyl)-5,6-dimethoxy-benzo[b]thiophene-2-carboxylic acid(1H-tetrazol-5-yl)-amide] was 1.17 µM; that for `COc1cc2sc(C(=O)Nc3nnn[nH]3)c(Sc3cccc(Cl)c3)c2cc1OC` [Example 7, 3-(3-chloro-phenylsulfanyl)-5,6-dimethoxy-benzo[b]thiophene-2-carboxylic acid(1H-tetrazol-5-yl)-amide] was 1.99 µM; that for `COc1cc2sc(C(=O)Nc3nnn[nH]3)c(Sc3ccc(Cl)cc3)c2cc1OC` [Example 8, 3-(4-chloro-phenylsulfanyl)-5,6-dimethoxy-benzo[b]thiophene-2-carboxylic acid(1H-tetrazol-5-yl)-amide] was 3.72 µM.
The same measure for `COc1cc2sc(C(=O)Nc3nnn[nH]3)c(Sc3ccc(C)cc3C)c2cc1OC` [Example 9, 3-(2,4-dimethyl-phenylsulfanyl)-5,6-dimethoxy-benzo[b]thiophene-2-carboxylic acid(1H-tetrazol-5-yl)-amide]: 2.8 µM; for `COc1cc2sc(C(=O)Nc3nnn[nH]3)c(Sc3cccc(Cl)c3Cl)c2cc1OC` [Example 10, 3-(2,3-dichloro-phenylsulfanyl)-5,6-dimethoxy-benzo[b]thiophene-2-carboxylic acid(1H-tetrazol-5-yl)-amide]: 1.13 µM; for `COc1cc2sc(C(=O)Nc3nnn[nH]3)c(Sc3ccc(C)c(C)c3)c2cc1OC` [Example 11, 3-(3,4-dimethyl-phenylsulfanyl)-5,6-dimethoxy-benzo[b]thiophene-2-carboxylic acid(1H-tetrazol-5-yl)-amide]: 2.07 µM.
For the compound `COc1cc2sc(C(=O)Nc3nnn[nH]3)c(Sc3ccc(Cl)c(Cl)c3)c2cc1OC` [Example 12, 3-(3,4-dichloro-phenylsulfanyl)-5,6-dimethoxy-benzo[b]thiophene-2-carboxylic acid(1H-tetrazol-5-yl)-amide], the IC50 was 1.23 µM.
In the case of `COc1cc(Sc2c(C(=O)Nc3nnn[nH]3)sc3cc(OC)c(OC)cc23)ccc1O` [Example 14, 3-(4-hydroxy-3-methoxy-phenylsulfanyl)-5,6-dimethoxy-benzo[b]thiophene-2-carboxylic acid(1H-tetrazol-5-yl)-amide], the IC50 worked out at 2.31 µM.
The same measure for `COc1ccc(OC)c(Sc2c(C(=O)Nc3nnn[nH]3)sc3cc(OC)c(OC)cc23)c1` [Example 15, 3-(2,5-dimethoxy-phenylsulfanyl)-5,6-dimethoxy-benzo[b]thiophene-2-carboxylic acid(1H-tetrazol-5-yl)-amide]: 0.62 µM; for `COc1ccc2sc(C(=O)Nc3nnn[nH]3)c(Sc3ccccc3)c2c1` [Example 17, 5-methoxy-3-phenylsulfanyl-benzo[b]thiophene-2-carboxylic acid(1H-tetrazol-5-yl)-amide]: 2.65 µM; for `COc1ccc2sc(C(=O)Nc3nnn[nH]3)c(Sc3ccccc3C)c2c1` [Example 18, 5-methoxy-3-o-tolysulfanyl-benzo[b]thiophene-2-carboxylic acid (1H-tetrazol-5-yl)-amide]: 0.47 µM.
With `COc1ccc2sc(C(=O)Nc3nnn[nH]3)c(Sc3ccccc3Cl)c2c1` [Example 19, 3-(2-chloro-phenylsulfanyl)-5-methoxy-benzo[b]thiophene-2-carboxylic acid(1H-tetrazol-5-yl)-amide], the IC50 amounted to 2.22 µM.
The same measure for `COc1ccc2sc(C(=O)Nc3nnn[nH]3)c(Sc3ccccc3Br)c2c1` [Example 20, 3-(2-bromo-phenylsulfanyl)-5-methoxy-benzo[b]thiophene-2-carboxylic acid(1H-tetrazol-5-yl)-amide]: 2.92 µM; for `COc1ccc2sc(C(=O)Nc3nnn[nH]3)c(Sc3cccc(Cl)c3)c2c1` [Example 21, 3-(3-chloro-phenylsulfanyl)-5-methoxy-benzo[b]thiophene-2-carboxylic acid(1H-tetrazol-5-yl)-amide]: 4.31 µM.
The same measure for `COc1cccc(Sc2c(C(=O)Nc3nnn[nH]3)sc3ccc(OC)cc23)c1` [Example 22, 5-methoxy-3-(3methoxyphenylsulfanyl)-benzo[b]thiophene-2-carboxylic acid(1H-tetrazol-5-yl)-amide]: 2.93 µM; for `COc1ccc2sc(C(=O)Nc3nnn[nH]3)c(Sc3ccc(Cl)cc3)c2c1` [Example 23, 3-(4-chloro-phenylsulfanyl)-5-methoxy-benzo[b]thiophene-2-carboxylic acid(1H-tetrazol-5-yl)-amide]: 4.93 µM.
